Key:
Assay in all cases: relative viability (nuclei count vs DMSO), 5 days (fraction); higher = more cells survive
[1] = compound: O=C(CCCCCCC(=O)Nc1ccccc1)NO [Vorinostat] + Cc1cc(Nc2cc(N3CCN(C)CC3)nc(Sc3ccc(NC(=O)C4CC4)cc3)n2)n[nH]1 [Tozasertib] (partner 0.1 µM)
Summary of the method: (§1)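 Medians of duplicate plates are given as relative viability. That measure is the nuclei count in treated wells divided by the count in vehicle wells. Counts were taken on 4× images of lung cancer cell lines in 1536-well plates, 5 days after pin-tool dosing the day after seeding with one drug alone or a fixed anchor-drug dose plus five library-drug doses (not always all listed) in √10 steps.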

[2] = compound: O=C(CCCCCCC(=O)Nc1ccccc1)NO [Vorinostat] + C[C@@H](Oc1cc(-c2cnn(C3CCNCC3)c2)cnc1N)c1c(Cl)ccc(F)c1Cl [Crizotinib] (partner 1 µM)
Summary of the method: as §1

[3] = compound: O=C(CCCCCCC(=O)Nc1ccccc1)NO [Vorinostat] + Cc1nc(Nc2ncc(C(=O)Nc3c(C)cccc3Cl)s2)cc(N2CCN(CCO)CC2)n1 [Dasatinib] (partner 0.075 µM)
Summary of the method: as §1

[4] = compound: O=C(CCCCCCC(=O)Nc1ccccc1)NO [Vorinostat] + C[C@]1(O)C[C@@H](c2nc(-c3ccc4ccc(-c5ccccc5)nc4c3)c3c(N)nccn32)C1 [Linsitinib] (partner 1 µM)
Summary of the method: as §1

[5] = compound: O=C(CCCCCCC(=O)Nc1ccccc1)NO [Vorinostat] + COc1cccc2cc(-c3nc([C@H]4CC[C@H](C(=O)O)CC4)n4ncnc(N)c34)[nH]c12 [OSI-027] (partner 0.5 µM)
Summary of the method: as §1

Row | Cell Line | relative viability ([1]; first compound 0.253 µM) | relative viability ([1]; first compound 0.8 µM) | relative viability ([1]; first compound 2.53 µM) | relative viability ([1]; first compound 8 µM) | relative viability ([2]; first compound 0.253 µM) | relative viability ([2]; first compound 0.8 µM) | relative viability ([2]; first compound 2.53 µM) | relative viability ([2]; first compound 8 µM) | relative viability ([3]; first compound 0.253 µM) | relative viability ([3]; first compound 0.8 µM) | relative viability ([3]; first compound 2.53 µM) | relative viability ([3]; first compound 8 µM) | relative viability ([4]; first compound 0.253 µM) | relative viability ([4]; first compound 0.8 µM) | relative viability ([4]; first compound 2.53 µM) | relative viability ([4]; first compound 8 µM) | relative viability ([5]; first compound 0.253 µM) | relative viability ([5]; first compound 0.8 µM) | relative viability ([5]; first compound 2.53 µM) | relative viability ([5]; first compound 8 µM)
1 | LC-2-ad | 0.418 | 0.303 | 0.217 | 0.147 | 0.368 | 0.361 | 0.268 | 0.178 | 0.585 | 0.235 | 0.127 | 0.124 | 0.868 | 0.606 | 0.13 | 0.136 | 0.81 | 0.508 | 0.206 | 0.159
2 | LU99A | 0.299 | 0.259 | 0.208 | 0.213 | 0.523 | 0.44 | 0.236 | 0.146 | 0.607 | 0.591 | 0.242 | 0.172 | 0.429 | 0.465 | 0.27 | 0.117 | 0.352 | 0.276 | 0.195 | 0.164
3 | NCI-H1993 | 0.633 | 0.608 | 0.489 | 0.457 | 0.836 | 0.932 | 0.531 | 0.653 | 0.655 | 0.626 | 0.544 | 0.41 | 0.836 | 0.861 | 0.575 | 0.614 | 0.53 | 0.63 | 0.568 | 0.525
4 | NCI-H522 | 0.644 | 0.457 | 0.302 | 0.141 | – | – | – | – | 0.895 | 0.99 | 0.344 | 0.239 | – | – | – | – | 0.8 | 0.617 | 0.591 | 0.247
5 | NCI-H1944 | 0.239 | 0.221 | 0.132 | 0.0956 | 0.965 | 0.631 | 0.292 | 0.125 | 0.204 | 0.184 | 0.178 | 0.174 | 1.21 | 0.948 | 0.697 | 0.207 | 0.413 | 0.287 | 0.226 | 0.165
6 | NCI-H1650 | 0.478 | 0.293 | 0.168 | 0.152 | 0.848 | 0.519 | 0.29 | 0.101 | 0.397 | 0.292 | 0.201 | 0.141 | – | – | – | – | 0.581 | 0.36 | 0.167 | 0.145
7 | PC-3 [JPC-3] | 0.821 | 0.741 | 0.229 | 0.266 | 0.955 | 0.97 | 0.41 | 0.228 | 1 | 1 | 0.593 | 0.227 | 0.886 | 0.938 | 0.625 | 0.281 | 0.68 | 0.727 | 0.378 | 0.175
8 | 201T | 0.742 | 0.534 | 0.334 | 0.203 | 1.12 | 1.03 | 1.02 | 0.317 | 0.578 | 0.503 | 0.381 | 0.221 | 1.04 | 0.932 | 0.825 | 0.363 | 0.837 | 0.756 | 0.322 | 0.118
9 | COR-L 105 | 0.458 | 0.331 | 0.245 | 0.213 | 0.65 | 0.383 | 0.221 | 0.199 | 0.377 | 0.394 | 0.259 | 0.196 | 1.1 | 1.16 | 0.394 | 0.222 | 0.839 | 0.601 | 0.319 | 0.182
10 | NCI-H1793 | 0.316 | 0.256 | 0.179 | 0.125 | – | – | – | – | 0.491 | 0.433 | 0.351 | 0.135 | 0.781 | 0.95 | 0.703 | 0.215 | 0.328 | 0.32 | 0.302 | 0.151
11 | ChaGo-K-1 | 0.221 | 0.213 | 0.191 | 0.164 | 1.23 | 0.98 | 0.408 | 0.261 | 0.656 | 0.568 | 0.444 | 0.246 | – | – | – | – | 0.553 | 0.484 | 0.319 | 0.176
12 | NCI-H2170 | 0.729 | 0.462 | 0.147 | 0.155 | 1.29 | 0.967 | 0.229 | 0.149 | 0.68 | 0.459 | 0.355 | 0.14 | – | – | – | – | 0.78 | 0.759 | 0.569 | 0.144
13 | NCI-H2342 | 0.436 | 0.322 | 0.335 | 0.262 | – | – | – | – | 0.304 | 0.315 | 0.274 | 0.28 | – | – | – | – | 0.607 | 0.649 | 0.524 | 0.386
14 | SW 900 | 0.584 | 0.315 | 0.213 | 0.113 | – | – | – | – | 0.679 | 0.739 | 0.249 | 0.118 | – | – | – | – | 0.49 | 0.472 | 0.227 | 0.0866
15 | HCC-44 | 1.1 | 0.296 | 0.184 | 0.141 | 0.728 | 0.783 | 0.224 | 0.0957 | – | – | – | – | 0.727 | 0.621 | 0.167 | 0.103 | 0.611 | 0.281 | 0.103 | 0.254
16 | NCI-H1395 | 1.02 | 0.682 | 0.456 | 0.324 | – | – | – | – | 0.395 | 0.434 | 0.365 | 0.344 | 1.31 | 1.22 | 0.725 | 0.344 | 0.647 | 0.597 | 0.418 | 0.352
17 | IA-LM | – | – | – | – | 0.751 | 0.743 | 0.152 | 0.0423 | – | – | – | – | 0.685 | 0.271 | 0.212 | 0.0566 | – | – | – | –
18 | NCI-H1563 | – | – | – | – | 0.796 | 0.824 | 0.469 | 0.492 | 0.411 | 0.458 | 0.448 | 0.385 | 1.19 | 1.03 | 0.749 | 0.525 | 0.787 | 0.692 | 0.577 | 0.549
19 | NCI-H1792 | – | – | – | – | 0.966 | 0.983 | 0.826 | 0.0888 | 0.866 | 0.921 | 0.402 | 0.126 | 0.57 | 0.376 | 0.148 | 0.0672 | 0.776 | 0.676 | 0.511 | 0.1

From the supplement of paper PMC10307832
